These results are taken from patent US20220409619A1, “INHIBITORS OF HUMAN IMMUNODEFICIENCY VIRUS REPLICATION” (VIIV HEALTHCARE UK (No. 5) LIMITED, priority 2019, published 2022).

Format in all cases: cell-based
Series [1] deals with recombinant NL4-3 virus (nef section replaced with Renilla luciferase gene) in MT-2 cells. The series can be described thus: HIV cell culture assay (antiviral activity, luciferase readout). In short, it runs like this: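 MT-2 cells were infected for 4-5 days with 293T-derived NL4-3 Renilla-luciferase reporter virus in the presence of serial compound dilutions. Luciferase was read with EnduRen live-cell substrate. EC50 was fitted with the median effect equation.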

The nature of series [2]: Compound cytotoxicity, XTT-based colorimetric assay. The conditions noted are these: human; uninfected MT2 cells, day 4, XTT-based colorimetric assay. The gist of the method: (§1)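 Run under the antiviral-assay protocol but without virus. Viability was read on day 4 and CC50 values were derived from the readout.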
(In general: Tetrazolium dyes change colour on reduction, which living cells bring about.)

A further series deals with uninfected MT2 cells. The description is as above. The conditions noted are these: day 4, XTT-based colorimetric assay. The gist of the method:
as §1

SMILES strings stand for the structures. Where two headings read alike, the source gives them in different places. A value given as a limit tells only on which side of the number the result lay.

Usually EC50 stands for the concentration that produces a half-maximal response. Broadly, the CC50 is the concentration that lowers cell viability or growth by half. Lower therefore signals harm at low concentration.

Turning to `O=C(Cn1nc(C(F)F)c2c1C(F)(F)[C@@H]1C[C@H]21)N[C@@H](Cc1cc(F)cc(F)c1)c1nc(-c2nccc(C(F)(F)F)n2)cc(=O)n1-c1ccc(Cl)c2c(NS(=O)(=O)C3CC3)nn(CC(F)F)c12` (atropisomer, axis not shown; (aR)) [Example 46, N-((S)-1-((1′P)-1′-(4-chloro-3-(cyclopropanesulfonamido)-1-(2,2-difluoroethyl)-1H-indazol-7-yl)-6′-oxo-4-(trifluoromethyl)-1′,6′-dihydro-[2,4′-bipyrimidin]-2′-yl)-2-(3,5-difluorophenyl)ethyl)-2-((3bS,4aR)-3-(difluoromethyl)-5,5-difluoro-3b,4,4a,5-tetrahydro-1H-cyclopropa[3,4]cyclopenta[1,2-c]pyrazol-1-yl)acetamide], in series [1] (Renilla, NL43), the EC50 was found to be 0.05 nM. For the same compound, the CC50 at 4 days in series [2] was > 100 nM.

`O=C(Cn1nc(C(F)F)c2c1C(F)(F)[C@@H]1C[C@H]21)N[C@@H](Cc1cc(F)cc(F)c1)c1nc(-c2ncccn2)cc(=O)n1-c1ccc(Cl)c2c(NS(=O)(=O)C3CC3)nn(CC(F)F)c12` (atropisomer, axis not shown; (aR)) [Example 48, N-((S)-1-((1′P)-1′-(4-chloro-3-(cyclopropanesulfonamido)-1-(2,2-difluoroethyl)-1H-indazol-7-yl)-6′-oxo-1′,6′-dihydro-[2,4′-bipyrimidin]-2′-yl)-2-(3,5-difluorophenyl)ethyl)-2-((3bS,4aR)-3-(difluoromethyl)-5,5-difluoro-3b,4,4a,5-tetrahydro-1H-cyclopropa[3,4]cyclopenta[1,2-c]pyrazol-1-yl)acetamide]: in series [1] (Renilla, NL43), the EC50 came to 0.18 nM. Moreover, the CC50 at 4 days in series [2] is > 100 nM.

In the case of `Cn1nc(NS(C)(=O)=O)c2c(Cl)ccc(-n3c([C@H](Cc4cc(F)cc(F)c4)NC(=O)Cn4nc(C(F)F)c5c4C(F)(F)[C@@H]4C[C@H]54)nc(-c4ccc(F)cc4F)cc3=O)c21` [Example 3, N-((S)-1-((1P)-1-(4-chloro-1-methyl-3-(methylsulfonamido)-1H-indazol-7-yl)-4-(2,4-difluorophenyl)-6-oxo-1,6-dihydropyrimidin-2-yl)-2-(3,5-difluorophenyl)ethyl)-2-((3bS,4aR)-3-(difluoromethyl)-5,5-difluoro-3b,4,4a,5-tetrahydro-1H-cyclopropa[3,4]cyclopenta[1,2-c]pyrazol-1-yl)acetamide], the EC50 in series [1] (MT-2 cells infected for 4-5 days with recombinant NL4-3 Renilla luciferase virus, luciferase activity, read-out: EC50) was found to be 1.7 nM. Further, in the series with uninfected MT2 cells, the CC50 is > 100 nM.

Turning to `O=C(Cn1nc(C(F)(F)F)c2c1C(F)(F)[C@@H]1C[C@H]21)N[C@@H](Cc1cc(F)cc(F)c1)c1nc(-c2nccc(C(F)(F)F)n2)cc(=O)n1-c1ccc(Cl)c2c(NS(=O)(=O)C3CC3)nn(CC(F)F)c12` [Example 26, N-((S)-1-((1′P)-1′-(4-chloro-3-(cyclopropanesulfonamido)-1-(2,2-difluoroethyl)-1H-indazol-7-yl)-6′-oxo-4-(trifluoromethyl)-1′,6′-dihydro-[2,4′-bipyrimidin]-2′-yl)-2-(3,5-difluorophenyl)ethyl)-2-((3bS,4aR)-5,5-difluoro-3-(trifluoromethyl)-3b,4,4a,5-tetrahydro-1H-cyclopropa[3,4]cyclopenta[1,2-c]pyrazol-1-yl)acetamide], the EC50 in series [1] (Renilla, NL43) was found to be 0.11 nM. In series [2], the CC50 at 4 days was > 100 nM.
